Assay [1] can be described thus: Inhibition of HIV1 protease using fluorogenic substrate by continuous fluorometric assay. Set-up: species or system Human immunodeficiency virus 1.
Assay [2] relates to Human immunodeficiency virus 1. In words: Antiviral activity against HIV1 LAI infected in human MT2 cells assessed as reduction in p24 Gag protein production incubated for 6 days by automated chemiluminescent enzyme immunoassay. The format is functional, cell-based. To be noted: Human immunodeficiency virus 1, LAI, MT2, 144 h.

Structures are written as SMILES.

In turn, `COc1ccc(S(=O)(=O)N(CC(C)C)C[C@@H](O)[C@H](Cc2ccccc2)NC(=O)c2cccc(CN3CCC[C@@H]3c3nc(C)cs3)c2)cc1` showed a Ki in assay [1] of 23.6 nM.

Consider `COc1ccc(S(=O)(=O)N(CC(C)C)C[C@@H](O)[C@H](Cc2ccccc2)NC(=O)c2cccc(C(=O)N3CC[C@@H](c4nc(C)cs4)C3)c2)cc1`, for which the IC50 in assay [2] came to 280 nM. In assay [1], this molecule gave an inhibition constant (Ki) of 0.49 nM.

Regarding `CNc1cc(C(=O)N[C@@H](Cc2ccccc2)[C@H](O)CN(CC(C)C)S(=O)(=O)c2ccc(OC)cc2)cc(C(=O)N(C)Cc2nc(C)oc2C)c1`, the 50% inhibitory concentration (IC50) in assay [2] amounted to 600 nM. Further, the inhibition constant Ki in assay [1] is 5.08 nM.

As to `COc1ccc(S(=O)(=O)N(CC(C)C)C[C@@H](O)[C@H](Cc2ccccc2)NC(=O)c2cccc(C(=O)N(C)Cc3coc(C)n3)c2)cc1`, the half-inhibitory concentration (IC50) in assay [2] was found to be 23 nM. In assay [1], this molecule had an inhibition constant (Ki) of 0.64 nM.

Take `COc1ccc(S(=O)(=O)N(CC(C)C)C[C@@H](O)[C@H](Cc2ccccc2)NC(=O)c2cncc(C(=O)N3CCC[C@@H]3c3nc(C)cs3)c2)cc1`: the inhibition constant (Ki) in assay [1] worked out at 2.5 nM.

Turning to `COc1ccc(S(=O)(=O)N(CC(C)C)C[C@@H](O)[C@H](Cc2ccccc2)NC(=O)c2cccc(C(=O)N(C)Cc3nc(C)co3)c2)cc1`, the concentration for half-maximal inhibition (IC50) in assay [2] is 581 nM. This molecule also displayed a Ki in assay [1] of 0.63 nM.

`COc1ccc(S(=O)(=O)N(CC(C)C)C[C@@H](O)[C@H](Cc2ccccc2)NC(=O)c2cccc(C(=O)N3CC[C@H](c4nc(C)cs4)C3)c2)cc1`: the IC50 in assay [2] came to 109 nM. Further, the affinity in assay [1], expressed as Ki, was 0.4 nM.

Turning to `COc1ccc(S(=O)(=O)N(CC(C)C)C[C@@H](O)[C@H](Cc2ccccc2)NC(=O)c2ccccc2C(=O)N(C)Cc2nc(C)oc2C)cc1`, the half-inhibitory concentration (IC50) in assay [2] was over 1000 nM. The inhibitory constant (Ki) in assay [1] is 629 nM.

As to `COCc1coc([C@H]2CCCN2C(=O)c2cccc(C(=O)N[C@@H](Cc3ccccc3)[C@H](O)CN(CC(C)C)S(=O)(=O)c3ccc(OC)cc3)c2)n1`, the IC50 in assay [2] worked out at 327 nM. The inhibition constant Ki in assay [1] is 0.8 nM.

On to `COc1ccc(S(=O)(=O)N(CC(C)C)C[C@@H](O)[C@H](Cc2ccccc2)NC(=O)c2cccc(C(=O)N3CCC[C@H]3c3nc(C)cs3)c2)cc1`, for which the concentration for half-maximal inhibition (IC50) in assay [2] was over 1000 nM. In assay [1], this molecule registered an inhibition constant Ki of 30.8 nM.

As to `COc1ccc(S(=O)(=O)N(CC(C)C)C[C@@H](O)[C@H](Cc2ccccc2)NC(=O)c2ccc(C(=O)N(C)Cc3nc(C)oc3C)cc2)cc1`, the half-inhibitory concentration (IC50) in assay [2] is over 1000 nM. In assay [1], the inhibition constant Ki came to 70 nM.

Turning to `COc1ccc(S(=O)(=O)N(CC(C)C)C[C@@H](O)[C@H](Cc2ccccc2)NC(=O)c2cccc(C(=O)N(C)Cc3csc(C)n3)c2)cc1`, the half-maximal inhibitory concentration (IC50) in assay [2] was determined as 32 nM. In assay [1], this molecule came in with a Ki of 0.107 nM.

Consider `COc1ccc(S(=O)(=O)N(CC(C)C)C[C@@H](O)[C@H](Cc2ccccc2)NC(=O)c2cccc(C(=O)N3CCC[C@@H]3c3nc(C)co3)c2)cc1`, for which the IC50 in assay [2] turned out to be 33 nM. In assay [1], this molecule gave a Ki of 0.41 nM.

For the molecule `Cc1csc([C@H]2CCCN2C(=O)c2cccc(C(=O)N[C@@H](Cc3ccccc3)[C@H](O)CN(CC(C)C)S(=O)(=O)c3ccc(CO)cc3)c2)n1`, the half-inhibitory concentration (IC50) in assay [2] worked out at 164 nM. Also, in assay [1], the inhibition constant Ki stood at 0.79 nM.

Regarding `COc1ccc(S(=O)(=O)N(CC(C)C)C[C@@H](O)[C@H](Cc2ccccc2)NC(=O)c2cc(O)cc(C(=O)N(C)Cc3nc(C)oc3C)c2)cc1`, the IC50 in assay [2] is 290 nM. In assay [1], affinity was put at a Ki of 0.51 nM.

For `COc1ccc(S(=O)(=O)N(CC(C)C)C[C@@H](O)[C@H](Cc2ccccc2)NC(=O)c2cccc(C(=O)N3CCC[C@@H]3c3nc(C)cs3)c2)cc1`, in assay [2], the IC50 came to 69 nM. Besides, in assay [1], the affinity corresponds to a Ki of 0.025 nM.

For `COc1ccc(S(=O)(=O)N(CC(C)C)C[C@@H](O)[C@H](Cc2ccccc2)NC(=O)c2cccc(C(=O)N3CCCC[C@@H]3c3nc(C)cs3)c2)cc1`, the half-maximal inhibitory concentration (IC50) in assay [2] was found to be 221 nM. Further, in assay [1], affinity was put at a Ki of 0.53 nM.

As for `COc1ccc(S(=O)(=O)N(CC(C)C)C[C@@H](O)[C@H](Cc2ccccc2)NC(=O)c2cccc(C(=O)N3CSC[C@@H]3c3nc(C)cs3)c2)cc1`, the half-maximal inhibitory concentration (IC50) in assay [2] was found to be 32 nM. The Ki in assay [1] was determined as 0.76 nM.

As for `Cc1csc([C@H]2CCCN2C(=O)c2cccc(C(=O)N[C@@H](Cc3ccccc3)[C@H](O)CN(CC(C)C)S(=O)(=O)c3ccc(N)cc3)c2)n1`, the IC50 in assay [2] is 189 nM. Besides, the inhibition constant Ki in assay [1] worked out at 1.61 nM.

For the molecule `COc1ccc(S(=O)(=O)N(CC(C)C)C[C@@H](O)[C@H](Cc2ccccc2)NC(=O)c2cccc(C(=O)N(C)Cc3nc(C)oc3C)c2)cc1`, in assay [2], the half-maximal inhibitory concentration (IC50) was 31 nM. Further, the inhibition constant (Ki) in assay [1] came to 0.21 nM.

As usually defined, the Ki is a measure of affinity in units of concentration, obtained from inhibition or displacement. A word on the IC50: it is the concentration that inhibits the measured activity by half.
